Measured values published in patent US10294202B2, “Pyrrolidinones as herbicides” (FMC Corporation, priority 2013, dated 2019).

How the values were obtained:
rice = assay: Test B flooded paddy test; format: in vivo, Oryza sativa; settings: 500 g ai/ha, Flood; scale of 0 to 100 where 0 is no effect and 100 is complete control
Outline: (§1)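 Visual ratings from 0, meaning no effect, up to 100, meaning complete control, were made by comparison with untreated controls 13 to 15 days after treatment. Test compounds went straight into floodwater standing 3 cm over the soil of pots holding 2-leaf seedlings.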

giant foxtail = assay: Test A pre-/postemergence herbicide test; format: in vivo, Setaria faberii
Outline: (§2)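 Formulated compound (non-phytotoxic solvent, surfactant) sprayed pre- onto soil of seeded loam/sand pots or post- onto seedlings at 1–2 leaves; ~10 d greenhouse; 0–100 visual control rating versus untreated.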

ragweed = assay: Test A pre-/postemergence herbicide test; format: in vivo, Ambrosia elatior
Outline: as §2

ryegrass, Italian = assay: Test A pre-/postemergence herbicide test; format: in vivo, Lolium multiflorum
Outline: as §2

barnyardgrass [1] = assay: Test B flooded paddy test; format: in vivo, Echinochloa crus-galli; settings: 500 g ai/ha, Flood; scale of 0 to 100 where 0 is no effect and 100 is complete control
Outline: as §1

kochia = assay: Test A pre-/postemergence herbicide test; format: in vivo, Kochia scoparia
Outline: as §2

pigweed = assay: Test A pre-/postemergence herbicide test; format: in vivo, Amaranthus retroflexus
Outline: as §2

blackgrass = assay: Test A postemergence herbicide test; format: in vivo, Alopecurus myosuroides
Outline: (§3)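 Young potted plants in a loam–sand mix, one- to two-leaf stage and 2–10 cm tall, receive the test chemical postemergence and stay in a greenhouse for approximately 10 days. Injury is then judged by eye against untreated plants, scored 0 (none) to 100 (complete control).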

ducksalad = assay: Test B flooded paddy test; format: in vivo, Heteranthera limosa; settings: 500 g ai/ha, Flood; scale of 0 to 100 where 0 is no effect and 100 is complete control
Outline: as §1

sedge, umbrella = assay: Test B flooded paddy test; format: in vivo, Cyperus difformis; settings: 500 g ai/ha, Flood; scale of 0 to 100 where 0 is no effect and 100 is complete control
Outline: as §1

wheat = assay: Test A pre-/postemergence herbicide test; format: in vivo, Triticum aestivum; settings: Postemergence
Outline: as §2

barnyardgrass [2] = assay: Test A pre-/postemergence herbicide test; format: in vivo, Echinochloa crus-galli
Outline: as §2

corn = assay: Test A pre-/postemergence herbicide test; format: in vivo, Zea mays; settings: Postemergence
Outline: as §2

galium = assay: Test A postemergence herbicide test; format: in vivo, Galium aparine
Outline: as §3

[3] = 125 g ai/ha, visual rating, 0 to 100 scale, 0 no effect, 100 complete control, approximately 10 days, preemergence
[4] = Postemergence, 125 g ai/ha, 0 to 100 scale, 0 is no effect, 100 is complete control
[5] = preemergence, 500 g ai/ha, 0 to 100 scale, 0 is no effect and 100 is complete control
[6] = 125 g ai/ha, 0 to 100 scale, 0 is no effect, 100 is complete control
[7] = Postemergence, 500 g ai/ha, 0 to 100 scale (0 no effect, 100 complete control)
[8] = Preemergence, 125 g ai/ha, 0 to 100 scale where 0 is no effect and 100 is complete control
[9] = Postemergence, 125 g ai/ha, visual rating on 0 to 100 scale (0 no effect, 100 complete control), approx. 10 days
[10] = 500 g ai/ha, 0 to 100 scale (0 no effect, 100 complete control)

Compound: O=C1NCC(c2cccc(C(F)F)c2)C1C(=O)Nc1ccc(F)c(F)c1F (racemic) [Compound 165]
- Plant response rating, Rice (rice): 10
- Plant response rating, Foxtail, Giant (giant foxtail; [3]): 90
- Plant response rating, Foxtail, Giant (giant foxtail; [4]): 70
- Foxtail, Giant plant response rating (0 to 100 scale, 0 is no effect, 100 is complete control) (giant foxtail; Postemergence, 500 g ai/ha): 90
- Plant response rating, Foxtail, Giant (giant foxtail; preemergence, 500 g ai/ha, 0 to 100 scale): 90
- Plant response rating, Ragweed (ragweed; [3]): 0
- Plant response rating, Ragweed (ragweed; [4]): 20
- Ragweed plant response rating (0 to 100 scale, 0 is no effect, 100 is complete control) (ragweed; Postemergence, 500 g ai/ha): 50
- Plant response rating, Ragweed (ragweed; [5]): 80
- Plant response rating, Ryegrass, Italian (ryegrass, Italian; [3]): 0
- Plant response rating, Ryegrass, Italian (ryegrass, Italian; [4]): 40
- Ryegrass, Italian plant response rating (0 to 100 scale, 0 is no effect, 100 is complete control) (ryegrass, Italian; Postemergence, 500 g ai/ha): 50
- Plant response rating, Ryegrass, Italian (ryegrass, Italian; [5]): 20
- Plant response rating, Barnyardgrass (barnyardgrass [1]): 75
- Plant response rating, Kochia (kochia; [3]): 70
- Plant response rating, Kochia (kochia; [4]): 50
- Kochia plant response rating (0 to 100 scale, 0 is no effect, 100 is complete control) (kochia; Postemergence, 500 g ai/ha): 70
- Plant response rating, Kochia (kochia; [5]): 70
- Plant response rating, Pigweed (pigweed; [3]): 50
- Plant response rating, Pigweed (pigweed; [4]): 30
- Pigweed plant response rating (0 to 100 scale, 0 is no effect, 100 is complete control) (pigweed; Postemergence, 500 g ai/ha): 50
- Plant response rating, Pigweed (pigweed; [5]): 70
- Plant response rating, Blackgrass (blackgrass; [6]): 60
- Blackgrass plant response rating (0 to 100 scale, 0 is no effect, 100 is complete control) (blackgrass; 500 g ai/ha): 70
- Plant response rating, Ducksalad (ducksalad): 100
- Plant response rating, Sedge, Umbrella (sedge, umbrella): 0
- Plant response rating, Wheat (wheat; [6]): 30
- Wheat plant response rating (0 to 100 scale, 0 is no effect, 100 is complete control) (wheat; 500 g ai/ha): 70
- Plant response rating, Barnyardgrass (barnyardgrass [2]; [3]): 90
- Plant response rating, Barnyardgrass (barnyardgrass [2]; [4]): 90
- Barnyardgrass plant response rating (0 to 100 scale, 0 is no effect, 100 is complete control) (barnyardgrass [2]; Postemergence, 500 g ai/ha): 90
- Plant response rating, Barnyardgrass (barnyardgrass [2]; preemergence, 500 g ai/ha, 0 to 100 scale (0 no effect, 100 complete control)): 90
- Plant response rating, Corn (corn; [6]): 60
- Corn plant response rating (0 to 100 scale, 0 is no effect, 100 is complete control) (corn; 500 g ai/ha): 80
- Plant response rating, Galium (galium; [6]): 40
- Galium plant response rating (0 to 100 scale, 0 is no effect, 100 is complete control) (galium; 500 g ai/ha): 50

Compound: O=C1NCC(c2cc3ccccc3o2)C1C(=O)Nc1ccccc1F (racemic) [Compound 281]
- Plant response rating, Rice (rice): 0
- Plant response rating, Foxtail, Giant (giant foxtail; [4]): 0
- Plant response rating, Foxtail, Giant (giant foxtail; [7]): 0
- Plant response rating, Foxtail, Giant (giant foxtail; [8]): 10
- Plant response rating, Foxtail, Giant (giant foxtail; [5]): 70
- Plant response rating, Ragweed (ragweed; [9]): 0
- Plant response rating, Ragweed (ragweed; [7]): 0
- Plant response rating, Ragweed (ragweed; [8]): 0
- Plant response rating, Ragweed (ragweed; [5]): 0
- Plant response rating, Ryegrass, Italian (ryegrass, Italian; [9]): 0
- Plant response rating, Ryegrass, Italian (ryegrass, Italian; [7]): 0
- Plant response rating, Ryegrass, Italian (ryegrass, Italian; [8]): 0
- Plant response rating, Ryegrass, Italian (ryegrass, Italian; [5]): 0
- Plant response rating, Barnyardgrass (barnyardgrass [1]): 20
- Plant response rating, Kochia (kochia; [4]): 0
- Plant response rating, Kochia (kochia; [7]): 0
- Plant response rating, Kochia (kochia; [8]): 0
- Plant response rating, Kochia (kochia; [5]): 0
- Plant response rating, Pigweed (pigweed; [9]): 0
- Plant response rating, Pigweed (pigweed; [7]): 0
- Plant response rating, Pigweed (pigweed; [8]): 0
- Plant response rating, Pigweed (pigweed; [5]): 0
- Plant response rating, Blackgrass (blackgrass; [6]): 0
- Plant response rating, Blackgrass (blackgrass; [10]): 0
- Plant response rating, Ducksalad (ducksalad): 75
- Plant response rating, Sedge, Umbrella (sedge, umbrella): 0
- Plant response rating, Wheat (wheat; 125 g ai/ha, visual rating on 0 to 100 scale (0 no effect, 100 complete control), approx. 10 days): 0
- Plant response rating, Wheat (wheat; [10]): 0
- Plant response rating, Barnyardgrass (barnyardgrass [2]; [4]): 40
- Plant response rating, Barnyardgrass (barnyardgrass [2]; [7]): 70
- Plant response rating, Barnyardgrass (barnyardgrass [2]; [8]): 50
- Plant response rating, Barnyardgrass (barnyardgrass [2]; [5]): 70
- Plant response rating, Corn (corn; [6]): 0
- Plant response rating, Corn (corn; [10]): 0
- Plant response rating, Galium (galium; [6]): 0
- Plant response rating, Galium (galium; [10]): 0
